Article PMC9305425 (Chemmedchem, 2022)
“And” between values parts separate entries of the source, which are not always exact repeats. Identical values can stand only once. Like-named read-outs stand apart in the source and are kept apart here.

What was measured:
[1] = molecular target: T1, oxidized EcDsbA (Escherichia coli, UniProt P0AEG4); assay: biochemical
Method: ITC was performed using a MicroCal iTC200 instrument (GE Healthcare). […] Titrations were conducted at 25 °C using 15 consecutive injections of 2.5 μL with 180 s intervals and a stirring speed of 700 rpm. […] Every interaction was tested in triplicate and the values given represent mean and standard error of mean (SEM) from these triplicate analyses.
Isothermal Titration Calorimetry (ITC).
EcDsbA (A)/VcDsbA (B). Each experiment was conducted in triplicate; a single replicate
representative of the acquired ITC data is shown.
(1 picture or pasted object on this page, not shown here)

[2] = molecular target: EcDsbA; details: cited from earlier work
[3] = molecular target: T1, oxidized EcDsbA; assay: biochemical; assay type: binding; set-up: made in house; host or cells: E. coli BL21(DE3)
[4] = system: VcDsbA; details: cited from earlier work
[5] = 2D [1H,1H]-NOESY; for solubility / aggregation in aqueous buffer: 298 K
Method: Solubility test of benzimidazole 2 in aqueous buffer. 2D [1H,1H]-NOESY of
benzimidazole 2 at 4 mM in D2O NMR buffer (50 mM NaPi, 25 mM NaCl, pH 6.5; 2% D6-

[6] = molecular target: VcDsbA; details: cited from earlier work; remark: listed apart in the source
[7] = molecular target: T2, oxidized VcDsbA (Vibrio cholerae serotype O1, UniProt P32557); assay: biochemical; assay type: binding; details: for Kd: 1H-15N HSQC titration, one-site binding model, 100 μM 15N-labeled oxidized VcDsbA, 298 K, read-out: equilibrium dissociation constant (KD); for extent of chemical shift perturbations (CSP) in 1H-15N HSQC of VcDsbA: single-point addition of compound (1 mM) to VcDsbA (100 μM), compared with other hits / analogues
T2 construct: made in house; host or cells: E. coli BL21(DE3)

[8] = molecular target: T3, unlabelled oxidized VcDsbA (Vibrio cholerae serotype O1, UniProt P32557); assay: Ligand-detected 1D 19F NMR affinity estimation; assay type: binding; details: change in 19F chemical shift at two protein:ligand ratios, VcDsbA 10 μM
T3 construct: made in house; host or cells: E. coli BL21(DE3)
Description: Residues with a CSP >0.05 ppm at the highest ligand concentration tested were mapped onto the VcDsbA structure (Figure 2C, D). The residues showing the largest CSP were localized within the hydrophobic groove, adjacent to the active site (Figure 2D). […] The K D for the VcDsbA‐benzimidazole 2 interaction was also estimated using ligand‐detected 1D ^19F‐NMR (Figure 2F). The ^19F chemical shift of the CF3 group in benzimidazole 2 has a chemical shift of −60.38 ppm in the absence of protein and was perturbed upon in a concentration‐dependent fashion upon addition of VcDsbA. The change in the chemical shift of the ^19F signal at two different protein : ligand ratios was used to estimate the K D of the interaction.[20]
Affinity estimation from ligand‐detected ^19F NMR. The change in the resonance frequency of the single ^19F signal in the 1D ^19F NMR spectrum of benzimidazole 2 was used to estimate the binding affinity using equation 2.[43] (2) KD=γL1-L2/1-γ
where γ is described as ΔδF1/ΔδF2 and ΔδF1 and ΔδF2 denote the changes in chemical shift of the fluorine signal of benzimidazole 2 in the absence of VcDsbA and in presence of VcDsbA (10.0 μM) at ligand concentrations of [L]1 and [L]2, respectively.

T2 sequence (P32557 20-200): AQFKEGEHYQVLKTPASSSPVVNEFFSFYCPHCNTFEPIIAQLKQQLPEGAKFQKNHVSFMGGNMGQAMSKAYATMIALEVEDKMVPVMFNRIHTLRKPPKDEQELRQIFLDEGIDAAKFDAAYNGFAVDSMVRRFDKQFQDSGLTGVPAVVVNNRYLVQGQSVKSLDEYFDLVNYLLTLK
T1 sequence (P0AEG4 20-208): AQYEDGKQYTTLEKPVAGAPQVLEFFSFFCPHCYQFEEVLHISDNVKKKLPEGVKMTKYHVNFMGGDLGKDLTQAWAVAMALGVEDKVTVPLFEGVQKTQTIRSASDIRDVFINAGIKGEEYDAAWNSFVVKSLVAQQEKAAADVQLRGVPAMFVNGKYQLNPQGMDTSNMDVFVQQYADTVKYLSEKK
T3 sequence (P32557 20-200): as the sequence (P32557 20-200) above

| SMILES | N (stoichiometry) [1] | ΔH [1] | ΔS [1] | Kd ([1]; KD) | Kd ([1]; association constant K) | Kd [2] | effect on the oxidation state of DsbA [3] | Kd ([3]; KD) | VcDsbA substrate oxidation in vivo [4] | redox state of VcDsbA [4] | solubility / aggregation in aqueous buffer ([5]; [TC]set = 4 mM in D2O NMR buffer) | Kd [6] | Kd [7] | extent of chemical shift perturbations (CSP) in 1H-15N HSQC of VcDsbA [7] | selectivity for VcDsbA over EcDsbA ([7]; ratio of HSQC-derived KD values, VcDsbA over EcDsbA) | Kd [3] | solubility / aggregation in aqueous buffer ([5]; 4 mM in D2O NMR buffer (50 mM NaPi, 25 mM NaCl, pH 6.5; 2% D6-DMSO; 98% D2O)) | solubility / aggregation in aqueous NMR buffer ([5]; mixing time 800 ms, concentration of 2.5 mM) | Kd [8] |
| --- | --- | --- | --- | --- | --- | --- | --- | --- | --- | --- | --- | --- | --- | --- | --- | --- | --- | --- | --- |
| C[C@H](CCC(=O)NCCS(=O)(=O)O)[C@H]1CC[C@H]2[C@@H]3[C@H](O)C[C@@H]4C[C@H](O)CC[C@]4(C)[C@H]3C[C@H](O)[C@]12C [TC, sodium taurocholate] | 1 | -6.551 ± 0.273 kcal/mol | -6.11 cal/mol/deg | 428 ± 44 µM | 340 µM | 146 ± 7 µM | no effect on the oxidation state | 224 µM and ~224 µM | inhibit VcDsbA substrate oxidation in vivo | able to affect the redox state of VcDsbA | no aggregation | 40 ± 2.5 µM |  |  |  |  |  |  |  |
| OCCCc1nc2ccc(C(F)(F)F)cc2[nH]1 [benzimidazole 1] |  |  |  |  |  |  |  |  |  |  |  |  | 610 ± 150 µM | largest chemical shift perturbations |  |  |  |  |  |
| OCCCc1nc2c(Cl)cc(C(F)(F)F)cc2[nH]1 [benzimidazole 2] |  |  |  |  |  |  |  |  |  |  |  |  | 446 ± 10 µM | largest CSP | ~8 fold | > 3500 µM | no aggregation | soluble and free from aggregation | 480 µM |
